In patent US20230233553A1, “A NEW COMBINATION THERAPY FOR THE TREATMENT OF FGFR3- RELATED SKELETAL DISEASE” (INSERM (INSTITUT NATIONAL DE LA SANTÉ ET DE LA RECHERCHE …, priority 2020, published 2023):

How the values were obtained:
NPR2 [1] = assay: cGMP production in tibia growth plates using cGi500 FRET sensor; type: cell-based, mouse; details: for cGMP (CFP/YFP emission ratio from cGi500) on perfusion across the growth plate: newborn mouse tibia growth plate; for CNP-induced cGMP increase after FGF treatment: then FGF 80 min, newborn mouse tibia
Description: cGMP production in chondrocytes within intact growth plates was measured using tibias dissected from newborn mice (0-1 day old) that globally expressed one or two copies of the cGi500 FRET sensor, as previously described (Shuhaibar et al., 2017).Tibias were dissected and cultured overnight on Millicell membranes in BGJb medium with 0.1% bovine serum albumin, 100 units/ml of penicillin, and 100 μg/ml of streptomycin. In preparation for imaging, each tibia was slit to remove the tissue overlying the growth plate. Where indicated, the tibia was incubated in LB-100, cantharidin, or control medium, followed by addition of FGF18 (0.5 μg/ml+1 μg/ml heparin) or control medium containing heparin only. The tibia was then placed in a perfusion slide and the growth plate was imaged on the stage of a confocal microscope, as previously described (Shuhaibar et al., 2017).
NPR2 activity in chondrocytes of intact growth plates was measured as previously described, using mice expressing a FRET sensor for cGMP, cGi500 (Shuhaibar et al., 2017). Tibias were isolated from newborn mice, and the overlying tissue was excised to expose the growth plate for confocal imaging (Data not shown). When the NPR2 agonist C-type natriuretic peptide (CNP) was perfused across the growth plate, the CFP/YFP emission ratio from cGi500 increased, indicating an increase in cGMP, due to stimulation of the guanylyl cyclase activity of NPR2 (Data not shown).
To investigate if LB-100 counteracts the inactivation of NPR2 by FGF, we used the following protocol:Tibias expressing cGi500 were preincubated with solutions of 1, 5 or 10 μM LB-100 for 60 minutes. FGF was then added and the incubation was continued for an additional 80 minutes. Following these incubations, the tibia was placed in a perfusion slide for confocal imaging, and cGMP production by NPR2 was monitored by measuring the increase in CFP/YFP emission ratio in response to CNP.

PPP1 = details: same conditions, DiFMUP; Richard Honkanen, personal communication; cited from earlier work
PPPS = biological target: T1, PPPS (Homo sapiens, UniProt P53041); details: in vitro, DiFMUP as substrate (D'Arcy et al., 2019); cited from earlier work
T1 sequence (P53041 1-499): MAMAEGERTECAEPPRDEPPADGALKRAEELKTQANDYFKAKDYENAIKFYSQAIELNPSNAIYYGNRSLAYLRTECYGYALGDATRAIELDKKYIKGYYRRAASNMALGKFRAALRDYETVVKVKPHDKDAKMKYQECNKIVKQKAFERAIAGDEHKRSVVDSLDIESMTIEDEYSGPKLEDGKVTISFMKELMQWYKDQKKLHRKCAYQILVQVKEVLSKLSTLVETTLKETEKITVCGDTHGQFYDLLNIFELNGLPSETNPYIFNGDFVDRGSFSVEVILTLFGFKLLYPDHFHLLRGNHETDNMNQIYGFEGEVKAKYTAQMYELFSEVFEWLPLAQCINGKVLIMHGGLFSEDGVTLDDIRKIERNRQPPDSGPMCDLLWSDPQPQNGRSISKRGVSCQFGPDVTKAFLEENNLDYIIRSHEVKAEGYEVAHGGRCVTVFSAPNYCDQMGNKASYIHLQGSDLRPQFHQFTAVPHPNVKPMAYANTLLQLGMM

[2] = Chung et al., 2017; cited from earlier work
NPR2 [3] = assay: Phos-tag gel electrophoresis / western blot of NPR2 in rib chondrocyte cultures; type: cell-based, mouse
Description: Rib cages were dissected from newborn (0-2 day old) mice, and trimmed to remove the skin, spinal cord, and soft tissue around the sternum and ribs. Non-chondrocyte tissue was digested away by incubating the rib cages in 2 mg/ml pronase in PBS for one hour in a shaking water bath at 37° C., and then incubated in 3 mg/ml collagenase D in medium for one hour. After washing, the rib cages were transferred to a dish with fresh collagenase D and incubated for 5-6 hours, with trituration at 2 hours, to release the chondrocytes. The isolated cells were passed through a 40 um nylon cell strainer, resuspended in DMEM/F12 medium with 10% fetal bovine serum, 100 units/ml of penicillin, and 100 μg/m1 of streptomycin, and plated in 35 mm tissue culture dishes, at a cell density corresponding to one newborn mouse per plate. The cells were cultured for 3 days, at which point they were ˜75-90% confluent, then washed with PBS and incubated in serum-free medium for 18 hours. The cells were then incubated in LB-100 (10 μM), or control medium, followed by addition of FGF18 (0.5 ug/ml+1 μg/ml heparin) or control medium containing heparin only.
At end of the incubation period, dishes were washed in PBS and cells lysed in 250 μl of 1% SDS containing 10 mM sodium fluoride, 1 μM microcystin, and Roche protease inhibitor cocktail. Protein content was determined by a BCA assay. […]

PPP2 = PPP2 (Homo sapiens, UniProt P67775); details: in vitro, DiFMUP as substrate (D'Arcy et al., 2019); cited from earlier work
Fgfr3^Y367C/+ femurs = assay: Ex vivo culture of fetal femurs from Fgfr3^Y367C/+ mice (growth in length and area); type: cell-based, mouse; details: E16.5 Fgfr3^Y367C/+ femurs, 6 day culture; BMN-111 0.1 μM, LB-100 10 μM
Description: (§1) FIG. 1. LB-100 and BMN-111 act synergistically to stimulate growth in fetal femurs from Fgfr3^Y367C/+ mice.(A) Diagram showing sites of action of LB-100 and BMN-111. (B) Representative photographs of fetal femurs from E16.5 day old Fgfr3+/+ (wildtype) and Fgfr3^Y367+ mice, before (D0) and after a 6 day (D6) culture with the indicated treatments. […] For all experiments, the concentration of BMN-111 was 0.1 μM, and the concentration of LB-100 was 10 μM. Symbols in graphs C-E indicate individual bones (n=4−10). Bars represent mean ±SEM and data were analyzed by unpaired two-tailed t-tests. Asterisks indicate significant differences (p<0.05) between indicated groups; n.s. indicates no significant difference (p>0.05).
(§2) Femurs were cultured ex vivo, as described previously (Jonquoy et al., 2012; Lorget et al., 2012). The left femur was cultured in the presence of LB-100 (10 μM), BMN-111 (0.1 μM), or LB-100 (10 μM)+BMN-111 (0.1 μM), and compared with the non-treated right femur. The bone's length was measured on day 0 (D0) and day 6 (D6). Images were captured with an Olympus SZX12 stereo microscope and quantified using cellSens software (Olympus). The results were expressed as the increase in femur length or area (D6-D0) in the presence or absence of LB-100, BMN-111, or LB-100+BMN-111.

NPR2 [4] = details: cantharidin 100 μM (Shuhaibar et al., 2017); cited from earlier work
[5] = system: children 5 to 14 years of age with achondroplasia; details: for up to 42 months; Savarirayan et al., 2019; cited from earlier work
Fgfr3+/+ femurs = assay: Ex vivo culture of fetal femurs from Fgfr3+/+ mice (growth in length and area); type: cell-based, mouse; details: BMN-111 0.1 μM, LB-100 10 μM, 6 day culture
Description: as §1, §2

[6] = system: growth plates of Fgfr3^Y367C/+ femurs; assay: Histology and immunohistochemistry of growth plates of ex vivo cultured Fgfr3^Y367C/+ femurs; type: cell-based, mouse
Description: FIG. 2. Dual action of LB-100 and BMN-111 improves chondrocyte differentiation in growth plates of ex-vivo cultured Fgfr3^Y367C/+ femurs. Mean area of individual hypertrophic chondrocytes in proximal growth plates of femurs treated (n=4−6 bones measured for each condition, with 54-137 cells measured for each bone). Data were analyzed by one-way ANOVA followed by the Holm-Sidak multiple comparison test (*p<0.05, **p<0.01, ****p<0.0001).
Fetal femur (E16.5) explants were fixed in 4% paraformaldehyde, decalcified with EDTA (0.4 M), and embedded in paraffin. Serial 5 μm sections were stained with hematoxylin-eosin-safran (HES) reagent, using standard protocols. For immunohistochemical assessment, sections were labeled with the following antibodies and a Dako Envision Kit: anti-COL X (BIOCYC, N.2031501005; 1:50 dilution), anti-phosphorylated ERK1-2 ([…]) (Cell Signaling Technology, #4370; 1:100 dilution), and anti-S0X9 (polyclonal antibody, Santa Cruz Biotechnology Inc., catalog D0609; dilution 1:75). Images were captured with an Olympus PD70-IX2-UCB microscope and quantified using cellSens software.
We measured the total area occupied by chondrocytes within the whole growth plate and the area occupied by COLX-positive chondrocytes. The area for proliferating chondrocytes was calculated by subtracting the COLX-positive area from the whole growth plate area.

Chain of PPP2 (P67775 whole entry): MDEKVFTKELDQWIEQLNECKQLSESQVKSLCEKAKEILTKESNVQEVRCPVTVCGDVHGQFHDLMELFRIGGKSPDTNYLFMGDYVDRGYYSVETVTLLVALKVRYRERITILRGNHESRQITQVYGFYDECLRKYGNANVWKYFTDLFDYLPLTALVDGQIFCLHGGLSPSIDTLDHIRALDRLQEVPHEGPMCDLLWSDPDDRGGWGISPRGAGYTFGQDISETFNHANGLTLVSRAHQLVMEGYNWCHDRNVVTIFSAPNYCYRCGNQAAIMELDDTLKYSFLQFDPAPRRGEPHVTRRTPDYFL

CCN(CC)/[N+]([O-])=N/O [DEA/NO]
cGMP (CFP/YFP emission ratio from cGi500) on perfusion across the growth plate (NPR2 [1]): did not increase cGMP

CN1CCN(C(=O)C2C3CCC(O3)C2C(=O)O)CC1 (stereo not drawn) [LB-100, 3-(4-methylpiperazine-1-carbonyl)-7-oxabicyclo[2.2.1]heptane-2-carboxylic acid]
IC50 (PPP1): 1800 ± 22 nM | IC50 (PPPS): 1820 ± 93 nM | CNP-induced cGMP increase after FGF treatment (NPR2 [1]; 1 μM LB-100 preincubation 60 min): had no effect | Effectiveness in counteracting NPR2 inactivation by FGF compared with cantharidin (NPR2 [1]; 5 μM LB-100 equivalent to 10 μM cantharidin): more effective than cantharidin | CNP-induced cGMP increase after FGF treatment (NPR2 [1]; 5 μM LB-100 preincubation 60 min): enhanced | Chondrocyte morphology in live growth plate (toxicity) (NPR2 [1]; 10 μM LB-100, confocal microscopy): no visible change in chondrocyte morphology | CNP-induced cGMP increase after FGF treatment (NPR2 [1]; 10 μM LB-100 preincubation 60 min): enhanced | Toxicity in phase I clinical trial [2]: little toxicity | Cell morphology of rib chondrocytes (NPR2 [3]; 1 hour incubation with 10 μM LB-100): did not cause any visible change in cell morphology | NPR2 dephosphorylation in response to FGF (NPR2 [3]; preincubation with 10 μM LB-100, primary rib chondrocytes): only partial | IC50 (PPP2): 390 ± 13 nM | Mean rate of increase in bone length relative to vehicle/untreated bones (growth rate ratio) (Fgfr3^Y367C/+ femurs): 1.04 | Rate of increase of total bone and cartilage area relative to control (growth rate ratio) (Fgfr3^Y367C/+ femurs): 1.40

C[C@@]12C(=O)OC(=O)[C@]1(C)[C@H]1CC[C@@H]2O1 [cantharidin]
Inactivation of NPR2 in growth plate chondrocytes by FGF (NPR2 [4]): inhibits the inactivation of NPR2 in growth plate chondrocytes by FGF

ANP: A-type natriuretic peptide, which activates the NPR1 guanylyl cyclase
cGMP (CFP/YFP emission ratio from cGi500) on perfusion across the growth plate (NPR2 [1]): did not increase cGMP

[Cyc(23,39)]H2NPGQEHPNARKYKGANKKGLSKGCFGLKLDRIGSMSGLGC—OH [BMN-111]
Annualized growth velocity in phase 2 [5]: sustained increase in annualized growth velocity | Rate of bone growth (length and area) (Fgfr3+/+ femurs): increased the rate of bone growth | Size of Fgfr3^Y367C/+ hypertrophic chondrocytes ([6]; COLX immunostaining, ex vivo cultured femurs): increased the size | Increase of total proliferative growth plate area of the femur over vehicle ([6]; Fgfr3^Y367C/+ femurs, average): 20% | NPR2 activity in growth plate chondrocytes (NPR2 [1]; BMN-111 0.1 μM): stimulated NPR2 activity | Mean rate of increase in bone length relative to vehicle/untreated bones (growth rate ratio) (Fgfr3^Y367C/+ femurs): 1.77 | Rate of increase of total bone and cartilage area relative to control (growth rate ratio) (Fgfr3^Y367C/+ femurs): 1.51

B1: FGF18: fibroblast growth factor used with heparin to activate FGF receptor (protein, UniProt O76093 28-207, looked up)
Fibroblast growth factor 18: EENVDFRIHVENQTRARDDVSRKQLRLYQLYSRTSGKHIQVLGRRISARGEDGDKYAQLLVETDTFGSQVRIKGKETEFYLCMNRKGKLVGKPDGTSKECVFIEKVLENNYTALMSAKYSGWYVGFTKKGRPRKGPKTRENQQDVHFMKRYPKGQPELQKPFKYTTVTKRSRRIRPTHPA
cGMP increase in response to CNP perfusion after exposure to FGF18 (NPR2 [1]; FGF18 0.5 μg/ml + 1 μg/ml heparin): suppressed the cGMP increase in response to CNP perfusion
